Earlier results in patent US12156879B2, “Combining BACE1 inhibitors with mGluR agonists for Alzheimer's disease therapy” (University of Connecticut, priority 2019, dated 2024).

How the values were obtained:
[1] = tested on: layer V pyramidal neurons; settings: mice treated with the BACE1 inhibitor; cited from earlier work
hippocampal LTP = settings: mice treated with the BACE1 inhibitor; cited from earlier work

SMILES	spine formation in layer V pyramidal neurons [1]	hippocampal LTP (hippocampal LTP)
C[C@@]1(c2cc(-c3cncnc3)c(F)cc2F)CCSC(N)=N1 [LY2811376]	reduced	impaired
CC#Cc1cncc(-c2cc(Cl)c(C3(C)CC(=O)N(C)C(=N)N3)s2)c1 (stereo not shown) [SCH1682496]	reduced	impaired
